# Results published in patent US20110158980A1, “METHODS TO TREAT AND SCREEN FOR AGENTS TO TREAT OBESITY” (TRUSTEES OF TUFTS COLLEGE, priority 2008, published 2011).
# Experiments:
# [1] = tested on: 3T3-L1 adipocytes; assay: Oxygen uptake rate by fiber-optic microsensor; format: cell-based; conditions: phenylacetate at the higher concentration (10 mM); day 12 post-induction; FIG. 2F
# Description: The dissolved oxygen in the culture medium was measured using a needle-type fiber-optic microsensor (MicroxTX3, Presens, Regensburg, Germany). The concentration data were related to the oxygen uptake rate (OUR) using the following diffusion-reaction model:
# where c0 and hb are, respectively, the oxygen concentration at medium surface and height of the medium in the culture well. The bottom of the culture plate (and cell monolayer) is at z=−hb. Integrating equation (1) and applying the boundary conditions we obtain: […]
# where hm and cm are, respectively, the distance between the probe and the medium surface and the measured oxygen concentration in the medium at the probe depth. The oxygen uptake rate was calculated by dividing the flux JO2 by the cell density. The measured oxygen uptake rate was used for relative comparisons between the treatment groups and not used for MFA in order to independently confirm the calculated oxygen uptake rate.
# [2] = tested on: 3T3-L1 adipocytes; assay: Amino acid uptake or output of adipocytes (HPLC of spent medium); format: cell-based; conditions: day 12 post-induction, positive value = uptake
# Description: 3T3-L1 preadipocytes were plated onto 24-well plates and expanded in preadipocyte growth medium consisting of DMEM supplemented with calf serum (10% v/v), penicillin and streptomycin. Medium was replenished every other day. Two days post-confluence, the cells were induced to differentiate using an adipogenic cocktail (1 μg/ml insulin, 0.5 mM isobutylmethylxanthine, and 1 μM dexamethasone) added to a basal medium (DMEM with 10% fetal bovine serum and penicillin/streptomycin). After 48 hrs, the first medium was replaced with a second induction medium consisting of the basal adipocyte medium supplemented with only insulin. […] This basal medium was replenished every other day during the remainder of the culture experiments.
# Metabolite measurements were performed both on cell lysates and spent medium samples as described previously (Si Y, Yoon J, Lee K. American journal of physiology 2007; 292:E1637-46). Cells were lysed in situ with an 0.1% SDS buffer and sonicated. Immediately after collection, the spent medium samples were cleaned of cell debris by a brief centrifugation step. Free glycerol, TG and free fatty acids (FFAs) were measured using enzymatic assay kits (SIGMA™). Glucose and lactate concentrations were measured using the methods of Trinder (Trinder P. J Clin Pathol 1969; 22:158-61) and Loomis (Loomis M E. J Lab Clin Med 1961; 57:966-9), respectively. Amino acids were quantified by HPLC using fluorescence-based detection following pre-column derivatization of primary or secondary amines with 6-aminoquinolyl-N-hydroxysuccinimidyl-carbamate (Cohen S A, De Antonis K M. J Chromatogr A 1994; 661:25-34). All metabolite data were normalized by the corresponding cell sample DNA content, which was determined with a fluorescence-based assay using the Hoechst dye.
smiles,measurement,setting,value
O=C(O)Cc1ccccc1 [phenylacetate],Reduction of oxygen consumption,[1],25%
same,ALA uptake or output,[2]; 5 mM PA,0.4 ± 0.1 mmol/g-DNA/2 days
same,ASN uptake or output,[2]; 5 mM PA,−4.6 ± 0.2 mmol/g-DNA/2 days
same,ASP uptake or output,[2]; 5 mM PA,0.0 ± 0.0 mmol/g-DNA/2 days
same,GLN uptake or output,[2]; 5 mM PA,−7.9 ± 0.6 mmol/g-DNA/2 days
same,GLU uptake or output,[2]; 5 mM PA,0.3 ± 0.0 mmol/g-DNA/2 days
same,GLY uptake or output,[2]; 5 mM PA,−7.3 ± 0.2 mmol/g-DNA/2 days
same,HIS uptake or output,[2]; 5 mM PA,−0.1 ± 0.1 mmol/g-DNA/2 days
same,ILE uptake or output,[2]; 5 mM PA,8.1 ± 0.3 mmol/g-DNA/2 days
same,LEU uptake or output,[2]; 5 mM PA,8.6 ± 0.3 mmol/g-DNA/2 days
same,LYS uptake or output,[2]; 5 mM PA,−1.8 ± 0.1 mmol/g-DNA/2 days
same,MET uptake or output,[2]; 5 mM PA,0.1 ± 0.1 mmol/g-DNA/2 days
same,PHE uptake or output,[2]; 5 mM PA,−0.1 ± 0.1 mmol/g-DNA/2 days
same,PRO uptake or output,[2]; 5 mM PA,−1.4 ± 0.0 mmol/g-DNA/2 days
same,SER uptake or output,[2]; 5 mM PA,4.5 ± 0.2 mmol/g-DNA/2 days
same,THR uptake or output,[2]; 5 mM PA,−1.2 ± 0.1^ mmol/g-DNA/2 days
same,TYR uptake or output,[2]; 5 mM PA,0.1 ± 0.2 mmol/g-DNA/2 days
same,VAL uptake or output,[2]; 5 mM PA,5.1 ± 0.4 mmol/g-DNA/2 days
same,ALA uptake or output,[2]; 10 mM PA,−0.5 ± 0.1 mmol/g-DNA/2 days
same,ASN uptake or output,[2]; 10 mM PA,−5.9 ± 0.4 mmol/g-DNA/2 days
same,ASP uptake or output,[2]; 10 mM PA,0.0 ± 0.0 mmol/g-DNA/2 days
same,GLN uptake or output,[2]; 10 mM PA,2.6 ± 2.9 mmol/g-DNA/2 days
same,GLU uptake or output,[2]; 10 mM PA,0.3 ± 0.0 mmol/g-DNA/2 days
same,GLY uptake or output,[2]; 10 mM PA,−7.9 ± 0.9^ mmol/g-DNA/2 days
same,HIS uptake or output,[2]; 10 mM PA,−0.1 ± 0.2 mmol/g-DNA/2 days
same,ILE uptake or output,[2]; 10 mM PA,7.5 ± 0.2 mmol/g-DNA/2 days
same,LEU uptake or output,[2]; 10 mM PA,7.9 ± 0.2 mmol/g-DNA/2 days
same,LYS uptake or output,[2]; 10 mM PA,−2.0 ± 0.2 mmol/g-DNA/2 days
same,MET uptake or output,[2]; 10 mM PA,0.1 ± 0.2 mmol/g-DNA/2 days
same,PHE uptake or output,[2]; 10 mM PA,−0.1 ± 0.4 mmol/g-DNA/2 days
same,PRO uptake or output,[2]; 10 mM PA,−2.1 ± 0.2 mmol/g-DNA/2 days
same,SER uptake or output,[2]; 10 mM PA,4.6 ± 0.5 mmol/g-DNA/2 days
same,THR uptake or output,[2]; 10 mM PA,−1.4 ± 0.4^ mmol/g-DNA/2 days
same,TYR uptake or output,[2]; 10 mM PA,−0.0 ± 0.4 mmol/g-DNA/2 days
same,VAL uptake or output,[2]; 10 mM PA,3.8 ± 0.4 mmol/g-DNA/2 days
